From publication PMC9924185, “A validated LC–MS/MS method for clinical pharmacokinetics and presumptive phase II metabolic pathways following oral administration of Andrographis paniculata extract” (Scientific Reports, 2023)
Like-named read-outs stand apart in the source and are kept apart here. Blank lines part the entries; values can stand above or below the compound they belong to.

Assays:
[1] = Clinical pharmacokinetics in plasma after single oral administration of A. paniculata extract; assay type: in vivo, human; conditions: for Cmax / AUC(0-t) / Vd/F / Tmax / half-life: human, parent compound in plasma, single oral dose of extract (60 mg andrographolide); for Cmax: healthy subjects n = 4; for Cmax / AUC(0-t) / Vd/F: mean ± SD; for AUC(0-t) / Vd/F / Tmax / half-life: n = 4; for Tmax / half-life: median; for AUC of both conjugated metabolites compared to the respective parent compounds: plasma, single oral dose of extract
Description: (§1) An aliquot of 50 µL of plasma or urine was placed in a 1.5 mL of polypropylene centrifuge micro-tube. Protein was removed from the sample by adding 200 µL of methanol (containing 50.00 ng/mL of IS). The mixture was vortexed for 10 min and was then centrifuged at 12,000 rpm, 4 °C for 10 min. The supernatant was filtered through a […] PVDF membrane (Chrom Tech) and transferred into a glass insert in a vial before LC‑MS/MS analysis.
(§2) The clinical pharmacokinetic study was designed as an open-labeled, with a single oral dosing, and conducted under a fasting condition. Four healthy subjects were recruited according to the following inclusion criteria: 18—55 years old with a body mass index (BMI) of 18–30 kg/m^2. Study participants were identified as healthy based on laboratory testing and physical examinations. The participants received 3 capsules containing A. paniculata extract (calculated as 60 mg of andrographolide/dose) before breakfast with 240 mL of drinking water. Blood samples, in EDTA tubes, were taken after oral administration at 0, 10, 20, 30, 45 min, and 1, 1.5, 2, 4, 6, 8, 10, 12, 24 h post dose. All blood samples were then centrifuged at 4000 ± 100 rpm, 4 °C for 5 min. Plasma was pipetted and stored in cryotubes at − 80 °C until further analysis. Urine samples were collected during 0–4, 4–8, 8–12, 12–24, 24–32, 32–40 and 40–48 h after dosing and were then kept at − 80 °C before sample extraction.
Pharmacokinetic parameters were determined by non-compartmental analysis using PK solutions software, version 2.0 (Summit Research Services). The maximum concentration of four targeted compounds (Cmax) and the time to reach maximum concentration (Tmax) were taken directly from the individual plasma concentration versus time profiles. The area under the curve from time zero to the last sampling time (AUC0-t) was estimated using the linear trapezoidal rule. The apparent volume of distribution (Vd/F) and the elimination half-life (t1/2) were determined using non-compartmental analysis.
(§3) Finally, the hydrolysis of glucuronide metabolites in the pharmacokinetic study was performed according to the following process: 50 µL of plasma or urine sample was incubated for 30 min with 50 µL of 1000 U/mL β-glucuronidase in phosphate buffer pH 6.8 (composed of 0.1 M sodium phosphate monobasic and 0.1 M sodium phosphate dibasic) at 37 °C. For the hydrolysis of sulfatase, 50 µL of 100 units/mL of sulfatase in an acetate buffer at pH 5.0 (composed of 0.1 M acetic acid and 0.1 M sodium acetate) was added into 50 µL of sample; the mixture was then incubated at 37 °C for 2 h. The reaction was stopped in all hydrolysis samples with 150 µL of cold methanol, and then protein precipitation was performed prior to LC–MS/MS analysis. However, due to unavailable standard of the conjugated forms (AP-glucuronide and […]). The quantitative analysis of conjugated metabolites was determined after the hydrolysis reaction by enzymatic digestion, and the free form was analyzed without hydrolysis. The conjugated standards of AP-glucuronide or AP-sulfate should be synthesized for determining the exact amount of the glucuronide or sulfate.

[2] = Cumulative urine excretion after single oral administration of A. paniculata extract; assay type: in vivo, human
Description: as §1, §2, §3

[3] = Stability in urine under different storage conditions; assay type: physicochemical, human
Description: (§4) The stability of plasma and urine samples were evaluated at three different QC concentration levels (LQC, MQC and HQC, n = 3 for each level); the conditions were freeze–thaw stability, long-term stability, short-term stability, and post preparative stability in an autosampler. The evaluation of stability under freeze–thaw condition was carried out over five cycles of − 80 °C for at least 12 h of each cycle. Long-term stability was analyzed after storing the samples at − 80 °C. Short-term stability of each analyte, for up to 8 h during processing on the bench at room temperature, was also evaluated. For evaluation of post-preparative stability, the extracted samples were stored at ambient temperature (4 °C) in an autosampler for 24 h. The analyte was considered as a stable sample when the average percentage of accuracy of the QC sample was in the range of 85–115% and the %CV was not over 15%.

[4] = plasma
Description: as §4

[5] = Freeze–thaw stability 5 cycles, 2.50 ng/mL (LQC)
[6] = Freeze–thaw stability 5 cycles, 500.00 ng/mL (MQC)
[7] = Freeze–thaw stability 5 cycles, 900.00 ng/mL (HQC)
[8] = Long term stability 3 months at − 80 °C, 2.50 ng/mL (LQC)
[9] = Long term stability 3 months at − 80 °C, 500.00 ng/mL (MQC)
[10] = Long term stability 3 months at − 80 °C, 900.00 ng/mL (HQC)
[11] = Post preparative stability 24 h at autosampler, 2.50 ng/mL (LQC)
[12] = Post preparative stability 24 h at autosampler, 500.00 ng/mL (MQC)
[13] = Post preparative stability 24 h at autosampler, 900.00 ng/mL (HQC)
[14] = Short term stability 8 h at room temperature, 2.50 ng/mL (LQC)
[15] = Short term stability 8 h at room temperature, 500.00 ng/mL (MQC)
[16] = Short term stability 8 h at room temperature, 900.00 ng/mL (HQC)

Cmax [1]: 60.9 ± 26.5 ng/mL
AUC(0-t) [1]: 210 ± 21.1 ng·h/mL
Vd/F [1]: 4.58 ± 3.28 L/kg
Tmax [1]: 0.8 h
half-life [1]: 1.27 h
AUC of both conjugated metabolites compared to the respective parent compounds [1]: greater
Route of excretion [2]: primarily excreted renally
%Accuracy [3, 5]: 94.39%
Measured concentration [3, 5]: 2.36 ± 0.20 ng/mL
%Accuracy [3, 6]: 94.01%
Measured concentration [3, 6]: 470.05 ± 32.15 ng/mL
%Accuracy [3, 7]: 98.78%
Measured concentration [3, 7]: 889.00 ± 36.63 ng/mL
%Accuracy [3, 8]: 95.31%
Measured concentration [3, 8]: 2.38 ± 0.16 ng/mL
%Accuracy [3, 9]: 91.78%
Measured concentration [3, 9]: 458.89 ± 20.53 ng/mL
%Accuracy [3, 10]: 98.08%
Measured concentration [3, 10]: 882.74 ± 14.22 ng/mL
%Accuracy [3, 11]: 94.23%
Measured concentration [3, 11]: 2.36 ± 0.18 ng/mL
%Accuracy [3, 12]: 95.00%
Measured concentration [3, 12]: 474.97 ± 23.30 ng/mL
%Accuracy [3, 13]: 99.66%
Measured concentration [3, 13]: 896.96 ± 17.62 ng/mL
%Accuracy [3, 14]: 93.15%
Measured concentration [3, 14]: 2.33 ± 0.06 ng/mL
%Accuracy [3, 15]: 95.80%
Measured concentration [3, 15]: 479.00 ± 32.64 ng/mL
%Accuracy [3, 16]: 101.88%
Measured concentration [3, 16]: 916.95 ± 32.00 ng/mL
%Accuracy [4, 5]: 97.99%
Measured concentration [4, 5]: 2.45 ± 0.06 ng/mL
%Accuracy [4, 6]: 93.01%
Measured concentration [4, 6]: 465.07 ± 25.39 ng/mL
%Accuracy [4, 7]: 95.28%
Measured concentration [4, 7]: 857.48 ± 19.46 ng/mL
%Accuracy [4, 8]: 94.28%
Measured concentration [4, 8]: 2.36 ± 0.06 ng/mL
%Accuracy [4, 9]: 91.77%
Measured concentration [4, 9]: 458.87 ± 8.67 ng/mL
%Accuracy [4, 10]: 99.25%
Measured concentration [4, 10]: 893.21 ± 22.77 ng/mL
%Accuracy [4, 11]: 93.81%
Measured concentration [4, 11]: 2.35 ± 0.18 ng/mL
%Accuracy [4, 12]: 92.60%
Measured concentration [4, 12]: 463.01 ± 10.97 ng/mL
%Accuracy [4, 13]: 99.52%
Measured concentration [4, 13]: 895.66 ± 31.23 ng/mL
%Accuracy [4, 14]: 93.65%
Measured concentration [4, 14]: 2.34 ± 0.15 ng/mL
%Accuracy [4, 15]: 89.06%
Measured concentration [4, 15]: 445.29 ± 9.56 ng/mL
%Accuracy [4, 16]: 98.76%
Measured concentration [4, 16]: 888.87 ± 23.16 ng/mL
Structure (SMILES): C=C1CC[C@@H]2[C@](C)(CO)[C@H](O)CC[C@@]2(C)[C@@H]1C/C=C1/C(=O)OC[C@H]1O [AP1, andrographolide]

Cmax [1]: 83.8 ± 22.2 ng/mL
AUC(0-t) [1]: 309 ± 59 ng·h/mL
Vd/F [1]: 0.73 ± 0.1 L/kg
Tmax [1]: 1.5 h
half-life [1]: 1.38 h
AUC of both conjugated metabolites compared to the respective parent compounds [1]: greater
Route of excretion [2]: primarily excreted renally
%Accuracy [3, 5]: 93.92%
Measured concentration [3, 5]: 2.35 ± 0.10 ng/mL
%Accuracy [3, 6]: 91.91%
Measured concentration [3, 6]: 459.54 ± 15.54 ng/mL
%Accuracy [3, 7]: 100.19%
Measured concentration [3, 7]: 901.72 ± 35.81 ng/mL
%Accuracy [3, 8]: 94.28%
Measured concentration [3, 8]: 2.36 ± 0.06 ng/mL
%Accuracy [3, 9]: 90.36%
Measured concentration [3, 9]: 451.82 ± 15.00 ng/mL
%Accuracy [3, 10]: 98.18%
Measured concentration [3, 10]: 883.61 ± 32.83 ng/mL
%Accuracy [3, 11]: 93.61%
Measured concentration [3, 11]: 2.34 ± 0.11 ng/mL
%Accuracy [3, 12]: 90.33%
Measured concentration [3, 12]: 451.66 ± 9.81 ng/mL
%Accuracy [3, 13]: 100.28%
Measured concentration [3, 13]: 902.47 ± 52.60 ng/mL
%Accuracy [3, 14]: 94.35%
Measured concentration [3, 14]: 2.36 ± 0.07 ng/mL
%Accuracy [3, 15]: 90.63%
Measured concentration [3, 15]: 453.16 ± 19.26 ng/mL
%Accuracy [3, 16]: 101.88%
Measured concentration [3, 16]: 916.89 ± 26.49 ng/mL
%Accuracy [4, 5]: 102.35%
Measured concentration [4, 5]: 2.56 ± 0.21 ng/mL
%Accuracy [4, 6]: 93.25%
Measured concentration [4, 6]: 466.24 ± 38.67 ng/mL
%Accuracy [4, 7]: 98.75%
Measured concentration [4, 7]: 888.74 ± 16.64 ng/mL
%Accuracy [4, 8]: 87.13%
Measured concentration [4, 8]: 2.18 ± 0.05 ng/mL
%Accuracy [4, 9]: 94.32%
Measured concentration [4, 9]: 471.59 ± 4.35 ng/mL
%Accuracy [4, 10]: 98.11%
Measured concentration [4, 10]: 883.01 ± 16.08 ng/mL
%Accuracy [4, 11]: 97.41%
Measured concentration [4, 11]: 2.44 ± 0.04 ng/mL
%Accuracy [4, 12]: 94.34%
Measured concentration [4, 12]: 471.70 ± 15.57 ng/mL
%Accuracy [4, 13]: 100.12%
Measured concentration [4, 13]: 901.09 ± 11.50 ng/mL
%Accuracy [4, 14]: 97.61%
Measured concentration [4, 14]: 2.44 ± 0.04 ng/mL
%Accuracy [4, 15]: 94.40%
Measured concentration [4, 15]: 472.00 ± 19.37 ng/mL
%Accuracy [4, 16]: 98.65%
Measured concentration [4, 16]: 887.83 ± 21.04 ng/mL
Structure (SMILES): C=C1CC[C@@H]2[C@](C)(CO)[C@H](O)CC[C@@]2(C)[C@@H]1/C=C/C1=CCOC1=O [AP3, 14-deoxy-11, 12-didehydroandrographolide]
